Ki data for 27 compounds are collected here from patent US20240174671A1, “New 2,3-Dihydro-1H-pyrrolo[3,2-b]pyridine Derivatives as Sigma Ligands” (ACONDICIONAMIENTO TARRASENSE, priority 2021, published 2024).

For test [1], the target named is T1, human σ2/TMEM97 receptor (Homo sapiens, UniProt Q5BJF2).
T1 construct: expressed in transfected cells; host or cells: HEK-293
Kind of test: Binding assay to human σ2/TMEM97 receptor ([3H]-DTG). Conditions: transfected HEK-293 membranes, 10 nM [3H]-DTG, 25° C., 120 minutes; read-out: Binding σ-[…] (binding to σ2-receptor expressed as Ki). Here is the method:
Binding Assay to Human σ2/TMEM97 Receptor.
Transfected HEK-293 membranes (15 μg) were incubated with 10 nM [^3H]-1,3-Di-o-tolylguanidine (DTG) in assay buffer containing Tris-HCl 50 mM at pH 8.0. NSB (non-specific binding) was measured by adding 10 μM haloperidol. The binding of the test compound was measured at either one concentration (% inhibition at 1 or 10 µM) or five different concentrations to determine affinity values (Ki). Plates were incubated at 25° C. for 120 minutes. After the incubation period, the reaction mix was transferred to MultiScreen HTS, FC plates (Millipore), filtered and washed 3 times with ice-cold 10 mM Tris-HCL (pH 8.0). Filters were dried and counted at approximately 40% efficiency in a MicroBeta scintillation counter (Perkin-Elmer) using EcoScint liquid scintillation cocktail.

In test [2] the target is T2, human σ1 receptor (Homo sapiens, UniProt Q99720).
T2 construct: expressed in transfected cells; host or cells: HEK-293
The experiment in a line: Human σ1 receptor radioligand assay ([3H](+)-pentazocine). The class given is binding. Here is the method:
Human σ1 Receptor Radioligand Assay
NBS (non-specific binding) was measured by adding 10 μM haloperidol. The binding of the test compound was measured at either one concentration (% inhibition at 1 or 10 µM) or five different concentrations to determine affinity values (Ki). Plates were incubated at 37° C. for 120 minutes. After the incubation period, the reaction mix was then transferred to MultiScreen HTS, FC plates (Millipore), filtered and plates were washed 3 times with ice-cold 10 mM Tris-HCL (pH7.4). Filters were dried and counted at approximately 40% efficiency in a MicroBeta scintillation counter (Perkin-Elmer) using EcoScint liquid scintillation cocktail.

The mark [3] stands for this setting: transfected HEK-293 membranes, 5 nM [3H](+)-pentazocine, 37° C., 120 minutes, read-out: Binding σ-[…] (binding to σ1-receptor expressed as Ki).

Like-named read-outs stand apart in the source and are kept apart here.

T2 sequence (Q99720 whole entry): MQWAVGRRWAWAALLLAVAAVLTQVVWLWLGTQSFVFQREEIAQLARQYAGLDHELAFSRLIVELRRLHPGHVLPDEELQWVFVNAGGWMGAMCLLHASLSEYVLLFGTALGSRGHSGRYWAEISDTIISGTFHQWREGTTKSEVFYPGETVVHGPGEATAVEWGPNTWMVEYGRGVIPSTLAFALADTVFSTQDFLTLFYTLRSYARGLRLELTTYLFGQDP
T1 sequence (Q5BJF2 whole entry): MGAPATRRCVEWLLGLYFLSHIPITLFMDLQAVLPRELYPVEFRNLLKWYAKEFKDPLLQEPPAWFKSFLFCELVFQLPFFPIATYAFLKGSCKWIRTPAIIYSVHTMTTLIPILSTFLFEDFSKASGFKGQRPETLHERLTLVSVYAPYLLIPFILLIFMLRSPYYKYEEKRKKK

Usually Ki stands for the dissociation constant of the complex between target and ligand, obtained from inhibition or displacement. Regarding `Cc1ccc2c(n1)C(C)(C)CN2C(=O)NC1CCN(CCc2ccccc2)CC1` [Example 27, 3,3,5-trimethyl-N-(1-phenethylpiperidin-4-yl)-2,3-dihydro-1H-pyrrolo[3,2-b]pyridine-1-carboxamide], the values for the Ki in test [1] and in test [2] were below 100 nM and 100 to 500 nM, respectively.
On to `CCOCCN1CCC(NC(=O)N2CC(C)(C)c3nc(C)ccc32)CC1` [Example 28, N-(1-(2-ethoxyethyl)piperidin-4-yl)-3,3,5-trimethyl-2,3-dihydro-1H-pyrrolo[3,2-b]pyridine-1-carboxamide], for which the results for the Ki in test [1] and in test [2] (setting [3]) were above 1000 nM and 100 to 500 nM, respectively.
The matching figures for `CN(Cc1ccccc1)C1CCN(C(=O)N2CC(C)(C)c3ncccc32)CC1` [Example 29, (4-(benzyl(methyl)amino)piperidin-1-yl)(3,3-dimethyl-2,3-dihydro-1H-pyrrolo[3,2-b]pyridin-1-yl)methanone]: below 100 nM and 100 to 500 nM.
The matching figures for `CC1(C)CN(C(=O)NC2CCN(Cc3ccccc3)CC2)c2cc(F)cnc21` [Example 31, N-(1-benzylpiperidin-4-yl)-6-fluoro-3,3-dimethyl-2,3-dihydro-1H-pyrrolo[3,2-b]pyridine-1-carboxamide]: 500 to 1000 nM and below 100 nM.
For `CC1(C)CN(C(=O)NC2CCN(Cc3ccccc3)CC2)c2cccnc21` [Example 32, N-(1-benzylpiperidin-4-yl)-3,3-dimethyl-2,3-dihydro-1H-pyrrolo[3,2-b]pyridine-1-carboxamide], in that order: above 1000 nM and below 100 nM.
For `Cc1ccc2c(n1)C(C)(C)CN2C(=O)NC[C@@H](c1ccc(F)cc1)N(C)C` [Example 33, (R)—N-(2-(dimethylamino)-2-(4-fluorophenyl)ethyl)-3,3,5-trimethyl-2,3-dihydro-1H-pyrrolo[3,2-b]pyridine-1-carboxamide], the inhibition constant (Ki) was above 1000 nM in test [1] and below 100 nM in test [2] (setting [3]).
On to `Cc1ccc2c(n1)C(C)(C)CN2C(=O)NC[C@@H](c1cccc(F)c1)N(C)C` [Example 34, (R)—N-(2-(dimethylamino)-2-(3-fluorophenyl)ethyl)-3,3,5-trimethyl-2,3-dihydro-1H-pyrrolo[3,2-b]pyridine-1-carboxamide], for which the inhibition constant Ki in test [1] is above 1000 nM; in test [2] (setting [3]) it was 100 to 500 nM.
For `COc1cccc([C@H](CNC(=O)N2CC(C)(C)c3nc(C)ccc32)N(C)C)c1` [Example 35, (R)—N-(2-(dimethylamino)-2-(3-methoxyphenyl)ethyl)-3,3,5-trimethyl-2,3-dihydro-1H-pyrrolo[3,2-b]pyridine-1-carboxamide], in that order: above 1000 nM and 100 to 500 nM.
The matching figures for `Cc1ccc2c(n1)C(C)(C)CN2C(=O)N1C[C@H]2CN(Cc3ccccc3)C[C@H]2C1` [Example 36, ((3aR,6aS)-5-benzylhexahydropyrrolo[3,4-c]pyrrol-2(1H)-yl)(3,3,5-trimethyl-2,3-dihydro-1H-pyrrolo[3,2-b]pyridin-1-yl)methanone]: 500 to 1000 nM and 100 to 500 nM.
For `Cc1ccc2c(n1)C(C)(C)CN2C(=O)N1CCC2(CCN(Cc3ccccc3)C2)C1` (stereo not drawn) [Example 37, (7-benzyl-2,7-diazaspiro[4.4]nonan-2-yl)(3,3,5-trimethyl-2,3-dihydro-1H-pyrrolo[3,2-b]pyridin-1-yl)methanone], in that order: below 100 nM and 100 to 500 nM.
Regarding `Cc1ccc2c(n1)C(C)(C)CN2C(=O)N1CCC2(CCN(Cc3ccccc3)C2)CC1` [Example 38, (2-benzyl-2,8-diazaspiro[4.5]decan-8-yl)(3,3,5-trimethyl-2,3-dihydro-1H-pyrrolo[3,2-b]pyridin-1-yl)methanone], the Ki in test [1] was below 100 nM; in test [2] (setting [3]), 100 to 500 nM.
For `Cc1ccc2c(n1)C(C)(C)CN2C(=O)N1CC[C@H](N(C)Cc2ccccc2)C1` [Example 39, (S)-(3-(benzyl(methyl)amino)pyrrolidin-1-yl)(3,3,5-trimethyl-2,3-dihydro-1H-pyrrolo[3,2-b]pyridin-1-yl)methanone], in that order: above 1000 nM and 100 to 500 nM.
The matching figures for `CN(Cc1ccccc1)C1CCN(C(=O)N2CC(C)(C)c3nc(C#N)ccc32)CC1` [Example 40, 1-(4-(benzyl(methyl)amino)piperidine-1-carbonyl)-3,3-dimethyl-2,3-dihydro-1H-pyrrolo[3,2-b]pyridine-5-carbonitrile]: below 100 nM and below 100 nM.
As for `Cc1ccc2c(n1)C(C)(C)CN2C(=O)NC1CCN(CC(C)C)CC1` [Example 41, N-(1-isobutylpiperidin-4-yl)-3,3,5-trimethyl-2,3-dihydro-1H-pyrrolo[3,2-b]pyridine-1-carboxamide], the inhibition constant (Ki) in test [1] was above 1000 nM; in test [2] (setting [3]), 100 to 500 nM.
For `Cc1ccc2c(n1)C(C)(C)CN2C(=O)NC1CCN(CC2CCOCC2)CC1` [Example 42, 3,3,5-trimethyl-N-(1-((tetrahydro-2H-pyran-4-yl)methyl)piperidin-4-yl)-2,3-dihydro-1H-pyrrolo[3,2-b]pyridine-1-carboxamide], in that order: above 1000 nM and 100 to 500 nM.
The matching figures for `Cc1ccc2c(n1)C(C)(C)CN2C(=O)N1CC[C@@H](N(C)Cc2ccccc2)C1` [Example 43, (R)-(3-(benzyl(methyl)amino)pyrrolidin-1-yl)(3,3,5-trimethyl-2,3-dihydro-1H-pyrrolo[3,2-b]pyridin-1-yl)methanone]: above 1000 nM and 500 to 1000 nM.
As for `Cc1ccc2c(n1)C(C)(C)CN2C(=O)NC1CCN(Cc2ccc(F)c(F)c2)CC1` [Example 44, N-(1-(3,4-difluorobenzyl)piperidin-4-yl)-3,3,5-trimethyl-2,3-dihydro-1H-pyrrolo[3,2-b]pyridine-1-carboxamide], the Ki in test [1] is above 1000 nM; in test [2] (setting [3]), below 100 nM.
For `CN(Cc1ccc(F)c(C#N)c1)C1CCN(C(=O)N2CC(C)(C)c3ncccc32)CC1` [Example 45, 5-(((1-(3,3-dimethyl-2,3-dihydro-1H-pyrrolo[3,2-b]pyridine-1-carbonyl)piperidin-4-yl)(methyl)amino)methyl)-2-fluorobenzonitrile], the Ki in test [1] is below 100 nM; in test [2] (setting [3]), above 1000 nM.
Take `CC1(C)CN(C(=O)NC2CCN(Cc3ccc(F)c(F)c3)CC2)c2cccnc21` [Example 46, N-(1-(3,4-difluorobenzyl)piperidin-4-yl)-3,3-dimethyl-2,3-dihydro-1H-pyrrolo[3,2-b]pyridine-1-carboxamide]: the Ki is above 1000 nM in test [1] and below 100 nM in test [2] (setting [3]).
Consider `CC1(C)CN(C(=O)NC2CCN(Cc3cccc(F)c3)CC2)c2cccnc21` [Example 47, N-(1-(3-fluorobenzyl)piperidin-4-yl)-3,3-dimethyl-2,3-dihydro-1H-pyrrolo[3,2-b]pyridine-1-carboxamide], for which the inhibition constant Ki in test [1] is above 1000 nM; in test [2] (setting [3]), below 100 nM.
For `CC1(C)CN(C(=O)NC2CCN(Cc3ccc(F)cc3)CC2)c2cccnc21` [Example 48, N-(1-(4-fluorobenzyl)piperidin-4-yl)-3,3-dimethyl-2,3-dihydro-1H-pyrrolo[3,2-b]pyridine-1-carboxamide], the Ki in test [1] is above 1000 nM; in test [2] (setting [3]) it was below 100 nM.
For `Cc1ccc2c(n1)CCN2C(=O)N1CCC(N(C)Cc2ccccc2)CC1` [Example 49], in that order: 100 to 500 nM and 100 to 500 nM.
For the compound `Cc1ccc2c(n1)C(C)(C)CN2C(=O)N1CCC(N(C)CCc2ccccc2)CC1` [Example 50, (4-(methyl(phenethyl)amino)piperidin-1-yl)(3,3,5-trimethyl-2,3-dihydro-1H-pyrrolo[3,2-b]pyridin-1-yl)methanone], the values for the inhibition constant (Ki) in test [1] and in test [2] (setting [3]) were below 100 nM and 100 to 500 nM, respectively.
The matching figures for `CN(Cc1ccccc1)C1CCN(C(=O)N2CCc3ncccc32)CC1` [Example 51, (4-(benzyl(methyl)amino)piperidin-1-yl)(2,3-dihydro-1H-pyrrolo[3,2-b]pyridin-1-yl)methanone]: 100 to 500 nM and below 100 nM.
As for `CN(CCc1ccccc1)C1CCN(C(=O)N2CC(C)(C)c3ncccc32)CC1` [Example 52, (3,3-dimethyl-2,3-dihydro-1H-pyrrolo[3,2-b]pyridin-1-yl)(4-(methyl(phenethyl)amino)piperidin-1-yl)methanone], the inhibition constant (Ki) in test [1] was below 100 nM; in test [2] (setting [3]) it was 100 to 500 nM.
The matching figures for `CN(CCc1ccccc1)[C@H]1CCCN(C(=O)N2CCc3ncccc32)C1` [Example 53, (S)-(2,3-dihydro-1H-pyrrolo[3,2-b]pyridin-1-yl)(3-(methyl(phenethyl)amino)piperidin-1-yl)methanone]: 100 to 500 nM and 100 to 500 nM.
With `Cc1ccc2c(n1)C(C)(C)CN2C(=O)N1CCC[C@H](N(C)CCc2ccccc2)C1` [Example 54, (S)-(3-(methyl(phenethyl)amino)piperidin-1-yl)(3,3,5-trimethyl-2,3-dihydro-1H-pyrrolo[3,2-b]pyridin-1-yl)methanone], the Ki in test [1] was below 100 nM; in test [2], 100 to 500 nM.
